Data taken from patent US10927105B1 (Lundbeck La Jolla Research Center, Inc., priority 2017, dated 2021).

Molecular target: MAGL (Homo sapiens (Human), UniProt Q99685)
Assay: In vitro competitive activity-based protein profiling (human prefrontal cortex membrane fractions, FP-Rh probe), MAGL band
Details: read-out: MAGL IC50 (μM) (human); human prefrontal cortex membrane fractions
Experimental: Biological Evaluation In Vitro Competitive Activity-Based Protein Profiling.
Proteomes (mouse brain membrane fraction for mouse assays; human prefrontal cortex membrane fractions for human assays) (50 mL, 1.0 mg/mL total protein concentration) were preincubated with varying concentrations of inhibitors at 37° C. After 30 min, FP-Rh (1.0 mL, 50 mM in DMSO) was added and the mixture was incubated for another 30 min at 37° C. Reactions were quenched with SDS loading buffer (15 μL-4×) and run on SDS-PAGE.

MAGL, sequence (Q99685 whole entry): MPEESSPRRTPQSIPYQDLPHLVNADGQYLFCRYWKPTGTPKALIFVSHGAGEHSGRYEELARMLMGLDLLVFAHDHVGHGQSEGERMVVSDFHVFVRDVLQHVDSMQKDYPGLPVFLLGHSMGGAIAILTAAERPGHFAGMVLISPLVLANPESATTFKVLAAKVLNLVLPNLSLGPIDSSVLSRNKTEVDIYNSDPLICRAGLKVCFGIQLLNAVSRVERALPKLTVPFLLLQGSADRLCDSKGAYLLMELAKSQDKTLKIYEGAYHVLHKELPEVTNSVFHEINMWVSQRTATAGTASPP

IC50 [µM] | SMILES
< 0.1 | NC(=O)c1ccn(C(=O)N2CCC3(CCN(Cc4cc(Cl)cc(C(F)(F)F)c4)C3)C2)n1 (stereo not drawn) [Example 433, 1-(7-(3-chloro-5-(trifluoromethyl)-benzyl)-2,7-diazaspiro[4.4]-nonane-2-carbonyl)-1H-pyrazole-3-carboxamide]
< 0.1 | Cc1cn(C(=O)N2CCC(C)(N(C)Cc3ccc(C(F)(F)F)cc3N3CCCC3)CC2)nc1C(=O)O [Example 398]
< 0.1 | C[C@@H]1CC[C@@H](C)N1c1cc(C(F)(F)F)ccc1CN1CCN(C(=O)n2ccc(C(=O)O)n2)CC1 [Example 359, 1-(4-(2-((2R,5R)-2,5-dimethylpyrrolidin-1-yl)-4-(trifluoromethyl)-benzyl)piperazine-1-carbonyl)-1H-pyrazole-3-carboxylic acid]
< 0.1 | CNC(=O)c1ccn(C(=O)N2CC3CN(Cc4cccc(C(F)(F)F)c4)CC3C2)n1 (stereo not drawn) [Example 432, N-methyl-1-(5-(3-(trifluoromethyl)-benzyl)-octahydropyrrolo-[3,4-c]pyrrole-2-carbonyl)-1H-pyrazole-3-carboxamide]
< 0.1 | NC(=O)c1ccn(C(=O)N2CCC3(CCN(Cc4ccc(N5CCOCC5)cc4C(F)(F)F)C3)C2)n1 (stereo not drawn) [Example 436, 1-(7-(4-morpholino-2-(trifluoromethyl)-benzyl)-2,7-diazaspiro-[4.4]nonane-2-carbonyl)-1H-pyrazole-3-carboxamide]
< 0.1 | CNC(=O)c1ccn(C(=O)N2CC3CN(Cc4cc(Cl)cc(C(F)(F)F)c4)CC3C2)n1 (stereo not drawn) [Example 437, 1-(5-(3-chloro-5-(trifluoromethyl)-benzyl)-octahydropyrrolo-[3,4-c]pyrrole-2-carbonyl)-N-methyl-1H-pyrazole-3-carboxamide]
< 0.1 | C[C@H]1CC[C@H](C)N1c1cc(C(F)(F)F)ccc1CN1CCN(C(=O)n2ccc(C(=O)O)n2)CC1 [Example 360, 1-(4-(2-((2S,5S)-2,5-dimethylpyrrolidin-1-yl)-4-(trifluoromethyl)-benzyl)piperazine-1-carbonyl)-1H-pyrazole-3-carboxylic acid]
< 0.1 | O=C(O)c1ccn(C(=O)N2CCN(Cc3cccc(Oc4ccnc(C(F)(F)F)c4)c3)CC2)n1 [Example 355, 1-(4-(3-((2-(trifluoromethyl)-pyridin-4-yl)oxy)benzyl)-piperazine-1-carbonyl)-1H-pyrazole-3-carboxylic acid]
< 0.1 | O=C(O)c1ccn(C(=O)N2CCC3(CCCN3Cc3ccc(C(F)(F)F)cc3N3CC4CCC(C3)O4)CC2)n1 [Example 416, 1-(1-(2-(8-oxa-3-azabicyclo[3.2.1]-octan-3-yl)-4-(trifluoromethyl)-benzyl)-1,8-diazaspiro[4.5]-decane-8-carbonyl)-1H-pyrazole-3-carboxylic acid]
< 0.1 | NC(=O)c1ccn(C(=O)N2CCC3(CCCN3C(=O)c3cc4ccc(C(F)(F)F)cc4s3)CC2)n1 [Example 389, 1-(1-(6-(trifluoromethyl)-benzo-[b]thiophene-2-carbonyl)-1,8-diazaspiro-[4.5]decane-8-carbonyl)-1H-pyrazole-3-carboxamide]

Further lines, the compound ahead of its results:

SMILES | IC50 [µM]
C[C@@H]1CN(Cc2cc(Cl)cc(C(F)(F)F)c2)CCN1C(=O)n1ccc(C(N)=O)n1 [Example 272, (R)-1-(4-(3-chloro-5-(trifluoromethyl)-benzyl)-2-methylpiperazine-1-carbonyl)-1H-pyrazole-3-carboxamide] | < 0.1
O=C(O)c1nn(C(=O)N2C[C@H]3C[C@H](Oc4cccc(-c5ccccc5)c4)C[C@H]3C2)cc1Cl [Example 304, 1-(trans-5-([1,1′-biphenyl]-3-yloxy)-octahydrocyclopenta-[c]pyrrole-2-carbonyl)-4-chloro-1H-pyrazole-3-carboxylic acid] | < 0.1
O=C(O)c1ccn(C(=O)N2CCN(Cc3cccc(Oc4ccc(F)cc4)c3)CC2)n1 [Example 51, 1-(4-(3-(4-fluorophenoxy)-benzyl)piperazine-1-carbonyl)-1H-pyrazole-3-carboxylic acid] | < 0.1
O=C(O)c1ccn(C(=O)N2C[C@H]3C[C@@H](Oc4cccc(-c5ccccc5)c4)C[C@H]3C2)n1 [Example 164, 1-(cis-5-([1,1′-biphenyl]-3-yloxy)-octahydrocyclopenta-[c]pyrrole-2-carbonyl)-1H-pyrazole-3-carboxylic acid] | < 0.1
Cc1c(COC2CCN(C(=O)n3ccc(C(=O)O)n3)CC2)cccc1C(F)(F)F [Example 235, 1-(4-((2-methyl-3-(trifluoromethyl)-benzyl)oxy)-piperidine-1-carbonyl)-1H-pyrazole-3-carboxylic acid] | < 0.1
CC(C)(O)COc1cccc(CN2CCN(C(=O)n3ccc(C(N)=O)n3)CC2)c1Cl [Example 37, 1-(4-(2-Chloro-3-(2-hydroxy-2-methylpropoxy)benzyl)piperazine-1-carbonyl)-1H-pyrazole-3-carboxamide] | < 0.1
CC(C)c1ccccc1O[C@H]1C[C@@H]2CN(C(=O)n3ccc(C(=O)O)n3)C[C@@H]2C1 [Example 221, 1-(trans-5-(2-isopropylphenoxy)-octahydrocyclopenta-[c]pyrrole-2-carbonyl)-1H-pyrazole-3-carboxylic acid] | < 0.1
O=C(O)c1nn(C(=O)N2CC3CN(Cc4ccc(N5CCCC5)cc4C(F)(F)F)CC3C2)cc1Cl (stereo not drawn) [Example 140, 4-chloro-1-(5-(4-(pyrrolidin-1-yl)-2-(trifluoromethyl)-benzyl)-octahydropyrrolo-[3,4-c]pyrrole-2-carbonyl)-1H-pyrazole-3-carboxylic acid] | < 0.1
Cc1cc(O[C@H]2C[C@@H]3CN(C(=O)n4ccc(C(=O)O)n4)C[C@@H]3C2)ccc1C(F)(F)F [Example 254, 1-(trans-5-(3-methyl-4-(trifluoromethyl)-phenoxy)-octahydrocyclopenta-[c]pyrrole-2-carbonyl)-1H-pyrazole-3-carboxylic acid] | < 0.1
O=C(O)c1ccn(C(=O)N2CCC3(CCN(Cc4cccc(C(F)(F)F)c4Cl)C3)CC2)n1 [Example 339, 1-(2-(2-chloro-3-(trifluoromethyl)-benzyl)-2,8-diazaspiro[4.5]-decane-8-carbonyl)-1H-pyrazole-3-carboxylic acid] | < 0.1
O=C(O)c1ccn(C(=O)N2CCC3(CCN(Cc4cc(Cl)cc(Cl)c4Cl)C3)CC2)n1 [Example 337, 1-(2-(2,3,5-trichlorobenzyl)-2,8-diazaspiro[4.5]-decane-8-carbonyl)-1H-pyrazole-3-carboxylic acid] | < 0.1
C[C@@H]1CN(Cc2ccc(-c3ccccc3)cc2C(F)(F)F)CCN1C(=O)n1ccc(C(=O)O)n1 [Example 351, (R)-1-(2-methyl-4-((3-(trifluoromethyl)-[1,1′-biphenyl]-4-yl)methyl)-piperazine-1-carbonyl)-1H-pyrazole-3-carboxylic acid] | < 0.1
O=C(O)c1ccn(C(=O)N2C[C@H]3C[C@H](OCc4cccc(C(F)(F)F)c4)C[C@H]3C2)n1 [Example 157, 1-(trans-5-((3-(trifluoromethyl)-benzyl)oxy)-octahydrocyclopenta-[c]pyrrole-2-carbonyl)-1H-pyrazole-3-carboxylic acid] | < 0.1
O=C(O)c1ccn(C(=O)N2C[C@H]3C[C@H](Oc4ccc(-c5ccccc5)cc4)C[C@H]3C2)n1 [Example 240, 1-(trans-5-([1,1′-biphenyl]-4-yloxy)-octahydrocyclopenta-[c]pyrrole-2-carbonyl)-1H-pyrazole-3-carboxylic acid] | < 0.1
COc1cc(-c2ccccc2)ccc1CN1CCN(C(=O)n2ccc(C(=O)O)n2)[C@H](C)C1 [Example 283, (R)-1-(4-((3-methoxy-[1,1′-biphenyl]-4-yl)methyl)-2-methylpiperazine-1-carbonyl)-1H-pyrazole-3-carboxylic acid] | < 0.1
O=C(O)c1nn(C(=O)N2CCC3(CCN(Cc4ccc(N5CCCC5)cc4C(F)(F)F)C3)CC2)cc1Cl [Example 138, 4-chloro-1-(2-(4-(pyrrolidin-1-yl)-2-(trifluoromethyl)-benzyl)-2,8-diazaspiro[4.5]-decane-8-carbonyl)-1H-pyrazole-3-carboxylic acid] | < 0.1
CC(C)c1cccc(O[C@H]2C[C@@H]3CN(C(=O)n4ccc(C(=O)O)n4)C[C@@H]3C2)c1 [Example 220, 1-(trans-5-(3-isopropylphenoxy)-octahydrocyclopenta-[c]pyrrole-2-carbonyl)-1H-pyrazole-3-carboxylic acid] | < 0.1
O=C(O)c1ccn(C(=O)N2CCN(Cc3cccc(Oc4cccc(C(F)(F)F)n4)c3)CC2)n1 [Example 353, 1-(4-(3-((6-(trifluoromethyl)-pyridin-2-yl)oxy)benzyl)-piperazine-1-carbonyl)-1H-pyrazole-3-carboxylic acid] | < 0.1
C[C@@H]1CN(Cc2ccc(-c3ccccc3)cc2F)CCN1C(=O)n1ccc(C(=O)O)n1 [Example 253, (R)-1-(4-((3-fluoro-[1,1′-biphenyl]-4-yl)methyl)-2-methylpiperazine-1-carbonyl)-1H-pyrazole-3-carboxylic acid] | < 0.1
O=C(O)c1ccn(C(=O)N2C[C@H]3C[C@H](Oc4cccc(-c5ccccn5)c4)C[C@H]3C2)n1 [Example 242, 1-(trans-5-(3-(pyridin-2-yl)phenoxy)-octahydrocyclopenta-[c]pyrrole-2-carbonyl)-1H-pyrazole-3-carboxylic acid] | < 0.1
O=C(O)c1ccn(C(=O)N2CCN(Cc3ccc(C(F)(F)F)cc3N3CC[C@H](F)C3)CC2)n1 [Example 92, (S)-1-(4-(2-(3-fluoropyrrolidin-1-yl)-4-(trifluoromethyl)-benzyl)-piperazine-1-carbonyl)-1H-pyrazole-3-carboxylic acid] | < 0.1
C[C@H]1CN(Cc2cc(F)cc(Oc3ccccc3Cl)c2)CCN1C(=O)n1ccc(C(=O)O)n1 [Example 349, (S)-1-(4-(3-(2-chlorophenoxy)-5-fluorobenzyl)-2-methylpiperazine-1-carbonyl)-1H-pyrazole-3-carboxylic acid] | < 0.1
O=C(O)c1ccn(C(=O)N2CCN(Cc3cccc(Oc4ccc(C(F)(F)F)cn4)c3)CC2)n1 [Example 61, 1-(4-(3-((5-(trifluoromethyl)-pyridin-2-yl)oxy)benzyl)-piperazine-1-carbonyl)-1H-pyrazole-3-carboxylic acid] | < 0.1
